Reference: ChEMBL document CHEMBL1137869 (Bioorg Med Chem Lett, 2004)
Each block holds one compound with its values, some of them ahead of it.

Legend:
[1] = Maximum concentration was determined in dog by iv/po dose at 5 mg/kg; type: ADME, organism-based, Canis lupus familiaris; set-up: dose 5 mg/kg; conditions: in vivo
[2] = target: T1, Platelet-derived growth factor receptor beta (Homo sapiens, UniProt P09619); test: In vitro inhibition of Platelet derived growth factor receptor beta autophosphorylation in MG-63 cells with 45% human plasma; type: cell-based
[3] = target: T1, Platelet-derived growth factor receptor beta; test: In vitro inhibition of Platelet derived growth factor receptor beta autophosphorylation in MG-63 cells without plasma; type: cell-based
[4] = Inhibition of PDGFR-beta/Flt-3 chimeric receptor autophosphorylation in CHO cells; type: cell-based
[5] = Inhibition of PDGFR-beta/c-Kit chimeric receptor autophosphorylation in CHO cells; type: cell-based
[6] = Plasma half life was determined in monkey by iv/po dose at 10 mg/kg; type: ADME, organism-based; set-up: dose 10 mg/kg; conditions: cercopithecidae
[7] = Maximum concentration was determined in rat by iv/po dose at 10 mg/kg; type: ADME, organism-based; set-up: dose 10 mg/kg; conditions: in vivo
[8] = Maximum concentration was determined in monkey by iv/po dose at 10 mg/kg; type: ADME, organism-based; set-up: dose 10 mg/kg; conditions: cercopithecidae, in vivo
[9] = Area under curve was determined in dog by peroral dose at 5 mg/kg; type: ADME, organism-based, Canis lupus familiaris; set-up: dose 5 mg/kg, route oral; conditions: in vivo, po
[10] = Area under curve was determined in rat by peroral dose at 10 mg/kg; type: ADME, organism-based; set-up: dose 10 mg/kg, route oral; conditions: in vivo, po
[11] = Percent bioavailability was determined in dog by iv/po dose at 5 mg/kg; type: ADME, organism-based, Canis lupus familiaris; conditions: in vivo
[12] = Percent bioavailability was determined in rat by iv/po dose at 10 mg/kg; type: ADME, organism-based; conditions: in vivo
[13] = Percent bioavailability was determined in monkey by iv/po dose at 10 mg/kg; type: ADME, organism-based; conditions: cercopithecidae, in vivo
[14] = Plasma half life was determined in dog by iv/po dose at 5 mg/kg; type: ADME, organism-based, Canis lupus familiaris; set-up: dose 5 mg/kg
[15] = target: T1, Platelet-derived growth factor receptor beta; test: Inhibition of Platelet derived growth factor receptor beta autophosphorylation in CHO cells; type: cell-based
[16] = Plasma half life was determined in rat by iv/po dose at 10 mg/kg; type: ADME, organism-based; set-up: dose 10 mg/kg
[17] = Area under curve was determined in rat by peroral dose at 30 mg/kg; type: ADME, organism-based; set-up: dose 30 mg/kg, route oral; conditions: in vivo, po
[18] = Plasma half life was determined in dog by iv/po dose at 8.69 mg/kg; type: ADME, organism-based, Canis lupus familiaris; set-up: dose 8.69 mg/kg
[19] = Maximum concentration was determined in rat by iv/po dose at 30 mg/kg; type: ADME, organism-based; set-up: dose 30 mg/kg; conditions: in vivo
[20] = Maximum concentration was determined in dog by iv/po dose at 8.69 mg/kg; type: ADME, organism-based, Canis lupus familiaris; set-up: dose 8.69 mg/kg; conditions: in vivo
[21] = Bioavailability in rat (dose 30 mg/kg i.v./p.o.); type: ADME, organism-based; conditions: in vivo, po
[22] = Percent bioavailability was determined in dog by iv/po dose at 8.69 mg/kg; type: ADME, organism-based, Canis lupus familiaris; conditions: in vivo
[23] = Plasma half life was determined in rat by iv/po dose at 30 mg/kg; type: ADME, organism-based; set-up: dose 30 mg/kg

T1 sequence (P09619 whole entry): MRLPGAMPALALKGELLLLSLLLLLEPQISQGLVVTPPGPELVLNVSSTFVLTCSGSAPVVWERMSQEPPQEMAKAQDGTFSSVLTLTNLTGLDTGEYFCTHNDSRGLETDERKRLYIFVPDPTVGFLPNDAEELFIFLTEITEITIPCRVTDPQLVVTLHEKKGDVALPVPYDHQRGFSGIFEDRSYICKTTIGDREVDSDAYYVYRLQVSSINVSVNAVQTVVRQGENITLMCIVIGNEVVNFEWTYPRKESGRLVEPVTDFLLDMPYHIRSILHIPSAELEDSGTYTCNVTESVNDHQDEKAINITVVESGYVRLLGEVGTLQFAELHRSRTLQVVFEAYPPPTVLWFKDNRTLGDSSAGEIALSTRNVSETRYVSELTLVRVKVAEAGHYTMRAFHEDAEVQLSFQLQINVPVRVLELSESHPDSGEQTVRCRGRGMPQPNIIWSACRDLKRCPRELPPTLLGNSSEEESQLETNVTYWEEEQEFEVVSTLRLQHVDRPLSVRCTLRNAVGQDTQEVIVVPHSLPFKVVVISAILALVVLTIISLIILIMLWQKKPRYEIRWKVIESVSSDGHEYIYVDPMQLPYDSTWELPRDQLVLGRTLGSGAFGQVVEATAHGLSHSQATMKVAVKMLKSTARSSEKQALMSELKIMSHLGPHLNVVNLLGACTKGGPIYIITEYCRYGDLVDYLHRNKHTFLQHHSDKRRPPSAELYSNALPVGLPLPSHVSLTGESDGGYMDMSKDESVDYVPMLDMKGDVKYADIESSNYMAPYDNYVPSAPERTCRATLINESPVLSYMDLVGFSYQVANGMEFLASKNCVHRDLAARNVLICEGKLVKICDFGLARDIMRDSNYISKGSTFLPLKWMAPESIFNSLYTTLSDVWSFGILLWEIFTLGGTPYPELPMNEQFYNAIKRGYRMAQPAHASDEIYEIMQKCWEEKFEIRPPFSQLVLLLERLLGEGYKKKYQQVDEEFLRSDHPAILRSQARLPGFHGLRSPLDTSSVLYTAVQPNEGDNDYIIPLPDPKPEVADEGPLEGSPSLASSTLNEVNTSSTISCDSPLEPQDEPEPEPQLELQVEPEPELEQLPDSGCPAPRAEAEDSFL

Cmax [1]: 38.9 ng/mL
IC50 [2]: 150 nM
IC50 [3]: 180 nM
IC50 [4]: 3190 nM
IC50 [5]: 100 nM
half-life [6]: 8.46 h
Cmax [7]: 34.1 ng/mL
Cmax [8]: 143 ng/mL
AUC [9]: 333 ng·h/mL
AUC [10]: 26.9 µg/h/mL
bioavailability [11]: 30.2%
bioavailability [12]: 8.82%
bioavailability [13]: 68%
half-life [14]: 7.58 h
IC50 [15]: 70 nM
half-life [16]: 17.4 h
Compound: COc1cc2c(N3CCN(/C(S)=N\c4ccc(-c5ccccn5)cc4)CC3)ncnc2cc1OCCN1CCCCC1

AUC [17]: 32.2 µg/h/mL
IC50 [2]: 60 nM
IC50 [3]: 50 nM
IC50 [4]: > 30000 nM
IC50 [5]: 890 nM
half-life [18]: 10.8 h
half-life [6]: 20.9 h
Cmax [19]: 239 ng/mL
Cmax [20]: 297 ng/mL
Cmax [8]: 235 ng/mL
bioavailability [21]: 13.7%
bioavailability [22]: 38.8%
half-life [23]: 14.1 h
IC50 [15]: 250 nM
Compound: COc1cc2c(N3CCN(C(=S)NCc4cnc(C)cn4)CC3)ncnc2cc1OCCN1CCCCC1
